Test results taken from publication PMC9693052, “Synthesis of 2-Aminopyrimidine Derivatives and Their Evaluation as β-Glucuronidase Inhibitors: In Vitro and In Silico Studies” (Molecules, 2022).

SMILES: Nc1nc(Cl)cc(Nc2ccc(Br)cc2)n1 [Compound 10, 6-Chloro-4-(N-(4-bromo)phenyl)-2,4-pyrimidinediamine]
- melting point: 190 to 192 °C

SMILES: CCCCCCCCOc1ccc(Nc2cc(Cl)nc(N)n2)cc1 [Compound 9]
- melting point: 185 to 187 °C

SMILES: Cc1ccc(Nc2cc(Cl)nc(N)n2)c(C)c1 [Compound 20, 6-Chloro-4-(N-(2,4-dimethyl)phenyl)-2,4-pyrimidinediamine]
- melting point: 178 to 180 °C

SMILES: CCCCOc1ccc(Nc2cc(Cl)nc(N)n2)cc1 [Compound 8, 6-Chloro-4-(N-(4-n-butoxy)phenyl)-2,4-pyrimidinediamine]
- melting point: 180 to 182 °C

SMILES: Cc1ccc(C)c(Nc2cc(Cl)nc(N)n2)c1 [Compound 18, 6-Chloro-4-(N-(2,5-dimethyl)phenyl)-2,4-pyrimidinediamine]
- melting point: 173 to 175 °C

SMILES: COc1cc(Nc2cc(Cl)nc(N)n2)ccc1C [Compound 6, 6-Chloro-4-(N-(3-methoxy-4-methyl)phenyl)-2,4-pyrimidinediamine]
- melting point: 245 to 247 °C

SMILES: Nc1nc(Cl)cc(NCc2ccco2)n1 [Compound 27, 6-Chloro-4-(N-(furan-2-yl)methyl)-2,4-pyrimidinediamine]
- melting point: 140 to 142 °C

SMILES: Nc1nc(Cl)cc(Nc2cccc(Br)c2)n1 [Compound 11, 6-Chloro-4-(N-(3-bromo)phenyl)-2,4-pyrimidinediamine]
- melting point: 180 to 182 °C

SMILES: CC(C)c1ccccc1Nc1cc(Cl)nc(N)n1 [Compound 16, 6-Chloro-4-(N-(2-isopropyl)phenyl)-2,4-pyrimidinediamine]
- melting point: 170 to 172 °C

SMILES: Nc1nc(Cl)cc(N2CCNCC2)n1 [Compound 24, 4-Chloro-6-(1-piperazinyl)-2-pyrimidinylamine]
- melting point: > 300 °C

SMILES: COc1ccccc1Nc1cc(Cl)nc(N)n1 [Compound 2, 6-Chloro-4-(N-(2-methoxy)phenyl)-2,4-pyrimidinediamine]
- melting point: 240 to 242 °C

SMILES: Cc1ccc(Cl)cc1Nc1cc(Cl)nc(N)n1 [Compound 19, 6-Chloro-4-(N-(5-chloro-2-methyl)phenyl)-2,4-pyrimidinediamine]
- melting point: 175 to 177 °C

SMILES: Cc1cccc(Nc2cc(Cl)nc(N)n2)c1C [Compound 17, 6-Chloro-4-(N-(2,3-dimethyl)phenyl)-2,4-pyrimidinediamine]
- melting point: 176 to 178 °C

SMILES: Nc1nc(Cl)cc(NCc2cccnc2)n1 [Compound 26, 6-Chloro-4-(N-(3-pyridinyl)methyl)-2,4-pyrimidinediamine]
- melting point: 210 to 212 °C

SMILES: Nc1nc(Cl)cc(Nc2ccccc2)n1 [Compound 1, 6-Chloro-4-(N-phenyl)-2,4-pyrimidinediamine]
- melting point: 175 to 177 °C

SMILES: COc1cccc(Nc2cc(Cl)nc(N)n2)c1 [Compound 3, 6-Chloro-4-(N-(3-methoxy)phenyl)-2,4-pyrimidinediamine]
- melting point: 178 to 180 °C

SMILES: COc1ccc(Nc2cc(Cl)nc(N)n2)cc1 [Compound 4, 6-Chloro-4-(N-(4-methoxy)phenyl)-2,4-pyrimidinediamine]
- melting point: 222 to 223 °C

SMILES: Cc1ccc(Nc2cc(Cl)nc(N)n2)cc1C [Compound 21, 6-Chloro-4-(N-(3,4-dimethyl)phenyl)-2,4-pyrimidinediamine]
- melting point: 179 to 180 °C

SMILES: Nc1nc(Cl)cc(Nc2ccc(I)cc2)n1 [Compound 14, 6-Chloro-4-(N-(4-iodo)phenyl)-2,4-pyrimidinediamine]
- melting point: 250 to 252 °C

SMILES: Nc1nc(Cl)cc(N2CCN(c3ccccc3)CC2)n1 [Compound 25, 6-Chloro-6-(4-phenyl-1-piprazinyl)-2-pyrimidine amine]
- melting point: 200 to 202 °C

SMILES: Nc1nc(Cl)cc(Nc2cccc(Cl)c2)n1 [Compound 13, 6-Chloro-4-(N-(3-chloro)phenyl)-2,4-pyrimidinediamine]
- melting point: 177 to 179 °C

SMILES: COc1ccc(OC)c(Nc2cc(Cl)nc(N)n2)c1 [Compound 5, 6-Chloro-4-(N-(2,5-dimethoxy)phenyl)-2,4-pyrimidinediamine]
- melting point: 182 to 184 °C

SMILES: Nc1nc(Cl)cc(Nc2ccc(Cl)cc2)n1 [Compound 12, 6-Chloro-4-(N-(4-chloro)phenyl)-2,4-pyrimidinediamine]
- melting point: 182 to 184 °C

SMILES: CCCCc1ccc(Nc2cc(Cl)nc(N)n2)cc1 [Compound 23, 6-Chloro-4-(N-(4-n-butyl)phenyl)-2,4-pyrimidinediamine]
- melting point: 175 to 177 °C

SMILES: CCc1ccc(Nc2cc(Cl)nc(N)n2)cc1 [Compound 22, 6-Chloro-4-(N-(4-ethyl)phenyl)-2,4-pyrimidinediamine]
- melting point: 172 to 174 °C
